Results taken from paper PMC12002301, “Discovery and functional characterization of a bombesin-type neuropeptide signaling system in an invertebrate” (Proceedings of the National Academy of Sciences of the …, 2025).
Entries after “also recorded” stand apart in the source; their conditions may differ.

Tested on: ArBNR1
Assay: Luminescence (GFP-aequorin Ca2+) assay, CHO-K1 cells coexpressing ArBNR1 and Gqs5
Format: cell-based, Asterias rubens
Conditions: ArBNR1, words
Description: Having investigated relationships of eleven A. rubens BN-type receptor candidates (ArBNR1-11) with BN-type, ET-type, and CCHa/EP-type receptors in other taxa, ArBNR1 was identified as the best candidate and therefore this was selected for experimental testing. However, two other receptors (ArBNR2 and ArBNR3) were also tested. The methods employed for functional characterization of A. rubens neuropeptide receptors have been described previously ([57]) and a description of the methods employed in this study is included in SI Appendix, SI Methods. […]
As a complement to use of CLANS, phylogenetic trees were generated with the maximum-likelihood method (1000 bootstrap replicates) using One Step Build a ML Tree plugin in TBtools (12), specifying orexin-type receptors as an outgroup. […] Tree_B analysed the branch of tree_A containing ArBNR1; tree_C analysed the branch of tree_A containing ArBNR2; tree_D analysed the branch of tree_A containing ArBNR3; tree_E analysed the branch of tree_A containing ArBNR4, ArBNR5 and ArBNR6; tree_F analysed the branch of tree_A containing ArBNR7; tree_G analysed the branch of tree_A containing ArBNR8; tree_H analysed the branch of tree_A containing ArBNR9 and tree_I analysed the branch of tree_A containing ArBNR10 and ArBNR11. […]
identical to residues 18 - 270 of the protein XP_033631283.1, which was determined from genome […]

“EPMPSSLALYIANLSP-NH2 [ArBNP65-81, C-terminally amidated 16-residue peptide predicted to be derived from residues 65 to 81 of ArBNP]” was tested, and the peptide-induced luminescence was “did not trigger luminescence; also recorded: peptide-induced luminescence was only observed with ArBN5-14”.
